From US20210254272A1, “TEXTILES HAVING ANTIMICROBIAL PROPERTIES” (Livinguard AG, priority 2015, published 2021)

Tested on: E. coli (ATCC 25922)
Assay: AATCC Test Method 100-2012 antibacterial activity of the treated textile, after 25 washes and 12 abrasion cycles, contact time 60 minutes
Type: cell-based
Protocol: The antibacterial activity of the textile was tested in accordance with AATCC Test Method 100-2012. Prior to the test, the fabric was cut into coupons of 2×4 inches and washed separately 25 times, and exposed to 12 abrasion cycles, as per US EPA protocol 90072PA4 (described further below). The tests were made against E. coli (ATCC 25922). Contact time was 60 minutes, after inoculating with 10^8 CFU per coupon.

polyglucosamine [chitosan]
Log reduction of antimicrobial performance of each active ingredient (exhaust 80 ° C., solution dosage 1% o.w.f, process time 90 min): 2.72 Log
Log reduction of antimicrobial performance (pure cotton fabric, exhaust 80° C., 60 min, dosage 0.1% o.w.f): 0.63 Log
Log reduction of antimicrobial performance (pure cotton fabric, exhaust 80° C., 60 min, dosage 0.2% o.w.f): 1.37 Log
Log reduction of antimicrobial performance (pure cotton fabric, exhaust 80° C., 60 min, dosage 0.5% o.w.f): 1.91 Log
Log reduction of antimicrobial performance (pure cotton fabric, exhaust 80° C., 60 min, dosage 0.8% o.w.f): 2.21 Log
Log reduction of antimicrobial performance (pure cotton fabric, exhaust 80° C., 60 min, dosage 1.0% o.w.f): 2.71 Log
Log reduction of antimicrobial performance (pure cotton, exhaust 80° C., 1% o.w.f, 60 min, curing 180° C., curing dwell time 0.5 min): 0.4 Log
Log reduction of antimicrobial performance (pure cotton, exhaust 80° C., 1% o.w.f, 60 min, curing 180° C., curing dwell time 1.0 min): 0.8 Log
Log reduction of antimicrobial performance (pure cotton, exhaust 80° C., 1% o.w.f, 60 min, curing 180° C., curing dwell time 1.5 min): 1.6 Log
Log reduction of antimicrobial performance (pure cotton, exhaust 80° C., 1% o.w.f, 60 min, curing 180° C., curing dwell time 2.0 min): 2.7 Log
Log reduction of antimicrobial performance (pure cotton, exhaust 80° C., 1% o.w.f, 60 min, curing 180° C., curing dwell time 2.5 min): 2.3 Log
Log reduction of antimicrobial performance (pure cotton, exhaust 80° C., 1% o.w.f, 60 min, curing 180° C., curing dwell time 3.0 min): 1.4 Log
Log reduction of antimicrobial performance (solution dosage 0.10% o.w.f, exhaust temperature 40° C., process time 60 min): 0 Log
Log reduction of antimicrobial performance (solution dosage 0.10% o.w.f, exhaust temperature 60° C., process time 60 min): 0 Log
Log reduction of antimicrobial performance (solution dosage 0.10% o.w.f, exhaust temperature 65° C., process time 60 min): 0 Log
Log reduction of antimicrobial performance (solution dosage 0.10% o.w.f, exhaust temperature 70° C., process time 60 min): 0 Log
Log reduction of antimicrobial performance (solution dosage 0.10% o.w.f, exhaust temperature 75° C., process time 60 min): 0.23 Log
Log reduction of antimicrobial performance (solution dosage 0.10% o.w.f, exhaust temperature 80° C., process time 60 min): 0.57 Log
Log reduction of antimicrobial performance (solution dosage 0.10% o.w.f, exhaust temperature 85° C., process time 60 min): 0.67 Log
Log reduction of antimicrobial performance (solution dosage 0.10% o.w.f, exhaust temperature 90° C., process time 60 min): 0.67 Log
Log reduction of antimicrobial performance (solution dosage 0.10% o.w.f, exhaust temperature 95° C., process time 60 min): 0.67 Log
Log reduction of antimicrobial performance (solution dosage 0.20% o.w.f, exhaust temperature 40° C., process time 60 min): 0 Log
Log reduction of antimicrobial performance (solution dosage 0.20% o.w.f, exhaust temperature 60° C., process time 60 min): 0 Log
Log reduction of antimicrobial performance (solution dosage 0.20% o.w.f, exhaust temperature 65° C., process time 60 min): 0 Log
Log reduction of antimicrobial performance (solution dosage 0.20% o.w.f, exhaust temperature 70° C., process time 60 min): 0 Log
Log reduction of antimicrobial performance (solution dosage 0.20% o.w.f, exhaust temperature 75° C., process time 60 min): 0.67 Log
Log reduction of antimicrobial performance (solution dosage 0.20% o.w.f, exhaust temperature 80° C., process time 60 min): 1.34 Log
Log reduction of antimicrobial performance (solution dosage 0.20% o.w.f, exhaust temperature 85° C., process time 60 min): 1.43 Log
Log reduction of antimicrobial performance (solution dosage 0.20% o.w.f, exhaust temperature 90° C., process time 60 min): 1.45 Log
Log reduction of antimicrobial performance (solution dosage 0.20% o.w.f, exhaust temperature 95° C., process time 60 min): 1.45 Log
Log reduction of antimicrobial performance (solution dosage 0.50% o.w.f, exhaust temperature 40° C., process time 60 min): 0 Log
Log reduction of antimicrobial performance (solution dosage 0.50% o.w.f, exhaust temperature 60° C., process time 60 min): 0.09 Log
Log reduction of antimicrobial performance (solution dosage 0.50% o.w.f, exhaust temperature 65° C., process time 60 min): 0.09 Log
Log reduction of antimicrobial performance (solution dosage 0.50% o.w.f, exhaust temperature 70° C., process time 60 min): 0.15 Log
Log reduction of antimicrobial performance (solution dosage 0.50% o.w.f, exhaust temperature 75° C., process time 60 min): 1.12 Log
Log reduction of antimicrobial performance (solution dosage 0.50% o.w.f, exhaust temperature 80° C., process time 60 min): 1.89 Log
Log reduction of antimicrobial performance (solution dosage 0.50% o.w.f, exhaust temperature 85° C., process time 60 min): 1.93 Log
Log reduction of antimicrobial performance (solution dosage 0.50% o.w.f, exhaust temperature 90° C., process time 60 min): 1.94 Log
Log reduction of antimicrobial performance (solution dosage 0.50% o.w.f, exhaust temperature 95° C., process time 60 min): 1.94 Log
Log reduction of antimicrobial performance (solution dosage 0.80% o.w.f, exhaust temperature 40° C., process time 60 min): 0 Log
Log reduction of antimicrobial performance (solution dosage 0.80% o.w.f, exhaust temperature 60° C., process time 60 min): 0.15 Log
Log reduction of antimicrobial performance (solution dosage 0.80% o.w.f, exhaust temperature 65° C., process time 60 min): 0.15 Log
Log reduction of antimicrobial performance (solution dosage 0.80% o.w.f, exhaust temperature 70° C., process time 60 min): 0.21 Log
Log reduction of antimicrobial performance (solution dosage 0.80% o.w.f, exhaust temperature 75° C., process time 60 min): 1.23 Log
Log reduction of antimicrobial performance (solution dosage 0.80% o.w.f, exhaust temperature 80° C., process time 60 min): 2.11 Log
Log reduction of antimicrobial performance (solution dosage 0.80% o.w.f, exhaust temperature 85° C., process time 60 min): 2.34 Log
Log reduction of antimicrobial performance (solution dosage 0.80% o.w.f, exhaust temperature 90° C., process time 60 min): 2.37 Log
Log reduction of antimicrobial performance (solution dosage 0.80% o.w.f, exhaust temperature 95° C., process time 60 min): 2.37 Log
Log reduction of antimicrobial performance (solution dosage 1.00% o.w.f, exhaust temperature 40° C., process time 60 min): 0 Log
Log reduction of antimicrobial performance (solution dosage 1.00% o.w.f, exhaust temperature 60° C., process time 60 min): 0.21 Log
Log reduction of antimicrobial performance (solution dosage 1.00% o.w.f, exhaust temperature 65° C., process time 60 min): 0.22 Log
Log reduction of antimicrobial performance (solution dosage 1.00% o.w.f, exhaust temperature 70° C., process time 60 min): 0.32 Log
Log reduction of antimicrobial performance (solution dosage 1.00% o.w.f, exhaust temperature 75° C., process time 60 min): 1.28 Log
Log reduction of antimicrobial performance (solution dosage 1.00% o.w.f, exhaust temperature 80° C., process time 60 min): 2.67 Log
Log reduction of antimicrobial performance (solution dosage 1.00% o.w.f, exhaust temperature 85° C., process time 60 min): 2.76 Log
Log reduction of antimicrobial performance (solution dosage 1.00% o.w.f, exhaust temperature 90° C., process time 60 min): 2.78 Log
Log reduction of antimicrobial performance (solution dosage 1.00% o.w.f, exhaust temperature 95° C., process time 60 min): 2.78 Log
